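Cultured in 96-well plates, cells were exposed to test compound for 48 hours across five concentrations. Definition used: TGI = concentration required for complete inhibition of growth.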
How the values were obtained:
Test in all cases: DTP human tumour cell line panel, 48 h
IGROV1 ovarian = tested on: IGROV1 ovarian
NCI-H460 lung = tested on: NCI-H460 lung
HL-60(TB) leukemia = tested on: HL-60(TB) leukemia
MCF7 breast = tested on: MCF7 breast
SK-MEL-28 melanoma = tested on: SK-MEL-28 melanoma
OVCAR-8 ovarian = tested on: OVCAR-8 ovarian
SF-268 CNS = tested on: SF-268 CNS
U251 CNS = tested on: U251 CNS
HCT-15 colon = tested on: HCT-15 colon
UACC-257 melanoma = tested on: UACC-257 melanoma
OVCAR-5 ovarian = tested on: OVCAR-5 ovarian
BT-549 breast = tested on: BT-549 breast
CCRF-CEM leukemia = tested on: CCRF-CEM leukemia
DU-145 prostate = tested on: DU-145 prostate
TK-10 renal = tested on: TK-10 renal
SF-539 CNS = tested on: SF-539 CNS
SN12C renal = tested on: SN12C renal
EKVX NSCLC = tested on: EKVX NSCLC
MDA-MB-435 = tested on: MDA-MB-435
MDA-MB-231 breast = tested on: MDA-MB-231 breast
HCT-116 colon = tested on: HCT-116 colon
OVCAR-4 ovarian = tested on: OVCAR-4 ovarian
MDA-N = tested on: MDA-N
UO-31 renal = tested on: UO-31 renal
786-0 renal = tested on: 786-0 renal
A549 NSCLC = tested on: A549 NSCLC
SNB-19 CNS = tested on: SNB-19 CNS
NCI-H226 lung = tested on: NCI-H226 lung
M14 melanoma = tested on: M14 melanoma
HS 578T breast = tested on: HS 578T breast
NCI-H23 lung = tested on: NCI-H23 lung
KM12 colon = tested on: KM12 colon
SF-295 CNS = tested on: SF-295 CNS
SK-MEL-5 melanoma = tested on: SK-MEL-5 melanoma
LOX IMVI melanoma = tested on: LOX IMVI melanoma
SK-OV-3 ovarian = tested on: SK-OV-3 ovarian
PC-3 prostate = tested on: PC-3 prostate
NCI-H522 lung = tested on: NCI-H522 lung
HT29 colon = tested on: HT29 colon
RXF 393 renal = tested on: RXF 393 renal
UACC-62 melanoma = tested on: UACC-62 melanoma
SNB-75 CNS = tested on: SNB-75 CNS
SW-620 colon = tested on: SW-620 colon
RPMI-8226 leukemia = tested on: RPMI-8226 leukemia
COLO 205 colon = tested on: COLO 205 colon
SK-MEL-2 melanoma = tested on: SK-MEL-2 melanoma
OVCAR-3 ovarian = tested on: OVCAR-3 ovarian
NCI/ADR-RES ovarian = tested on: NCI/ADR-RES ovarian
ACHN renal = tested on: ACHN renal
HOP-62 NSCLC = tested on: HOP-62 NSCLC
CAKI-1 renal = tested on: CAKI-1 renal
SR leukemia = tested on: SR leukemia
K-562 leukemia = tested on: K-562 leukemia
A498 renal = tested on: A498 renal
MOLT-4 leukemia = tested on: MOLT-4 leukemia
HCC-2998 colon = tested on: HCC-2998 colon
MALME-3M melanoma = tested on: MALME-3M melanoma

## CC(C)(C)c1cc(/C=C/C(=O)CC(=O)/C=C/c2cc(C(C)(C)C)c(O)c(C(C)(C)C)c2)cc(C(C)(C)C)c1O
IGROV1 ovarian
  TGI: > 50 µM
NCI-H460 lung
  TGI: > 50 µM
HL-60(TB) leukemia
  TGI: > 50 µM
MCF7 breast
  TGI: > 50 µM
SK-MEL-28 melanoma
  TGI: > 50 µM
OVCAR-8 ovarian
  TGI: > 50 µM
SF-268 CNS
  TGI: > 50 µM
U251 CNS
  TGI: > 50 µM
HCT-15 colon
  TGI: > 50 µM
UACC-257 melanoma
  TGI: > 50 µM
OVCAR-5 ovarian
  TGI: > 50 µM
BT-549 breast
  TGI: > 50 µM
CCRF-CEM leukemia
  TGI: > 50 µM
DU-145 prostate
  TGI: > 50 µM
TK-10 renal
  TGI: > 50 µM
SF-539 CNS
  TGI: > 50 µM
SN12C renal
  TGI: > 50 µM
EKVX NSCLC
  TGI: > 50 µM
MDA-MB-435
  TGI: > 50 µM
MDA-MB-231 breast
  TGI: > 50 µM
HCT-116 colon
  TGI: > 50 µM
OVCAR-4 ovarian
  TGI: > 50 µM
MDA-N
  TGI: > 50 µM
UO-31 renal
  TGI: > 50 µM
786-0 renal
  TGI: > 50 µM
A549 NSCLC
  TGI: > 50 µM
SNB-19 CNS
  TGI: > 50 µM
NCI-H226 lung
  TGI: > 50 µM
M14 melanoma
  TGI: > 50 µM
HS 578T breast
  TGI: > 50 µM
NCI-H23 lung
  TGI: > 50 µM
KM12 colon
  TGI: > 50 µM
SF-295 CNS
  TGI: > 50 µM
SK-MEL-5 melanoma
  TGI: > 50 µM
LOX IMVI melanoma
  TGI: > 50 µM
SK-OV-3 ovarian
  TGI: > 50 µM
PC-3 prostate
  TGI: > 50 µM
NCI-H522 lung
  TGI: > 50 µM
HT29 colon
  TGI: > 50 µM
RXF 393 renal
  TGI: > 50 µM
UACC-62 melanoma
  TGI: > 50 µM
SNB-75 CNS
  TGI: > 50 µM
SW-620 colon
  TGI: > 50 µM
RPMI-8226 leukemia
  TGI: > 50 µM
COLO 205 colon
  TGI: > 50 µM
SK-MEL-2 melanoma
  TGI: > 50 µM
OVCAR-3 ovarian
  TGI: > 50 µM
NCI/ADR-RES ovarian
  TGI: > 50 µM
ACHN renal
  TGI: > 50 µM
HOP-62 NSCLC
  TGI: > 50 µM

## CO[C@H]1C[C@H](n2cc(C)c(=O)[nH]c2=O)O[C@@H]1CO
IGROV1 ovarian
  TGI: > 100 µM
NCI-H460 lung
  TGI: > 100 µM
HL-60(TB) leukemia
  TGI: > 100 µM
MCF7 breast
  TGI: > 100 µM
CAKI-1 renal
  TGI: > 100 µM
SR leukemia
  TGI: > 100 µM
SK-MEL-28 melanoma
  TGI: > 100 µM
OVCAR-8 ovarian
  TGI: > 100 µM
SF-268 CNS
  TGI: > 100 µM
U251 CNS
  TGI: > 100 µM
HCT-15 colon
  TGI: > 100 µM
UACC-257 melanoma
  TGI: > 100 µM
OVCAR-5 ovarian
  TGI: > 100 µM
K-562 leukemia
  TGI: > 100 µM
BT-549 breast
  TGI: > 100 µM
CCRF-CEM leukemia
  TGI: > 100 µM
DU-145 prostate
  TGI: > 100 µM
TK-10 renal
  TGI: > 100 µM
SF-539 CNS
  TGI: > 100 µM
SN12C renal
  TGI: > 100 µM
EKVX NSCLC
  TGI: > 100 µM
MDA-MB-435
  TGI: > 100 µM
MDA-MB-231 breast
  TGI: > 100 µM
HCT-116 colon
  TGI: > 100 µM
OVCAR-4 ovarian
  TGI: > 100 µM
MDA-N
  TGI: > 100 µM
UO-31 renal
  TGI: > 100 µM
786-0 renal
  TGI: > 100 µM
A549 NSCLC
  TGI: > 100 µM
SNB-19 CNS
  TGI: > 100 µM
NCI-H226 lung
  TGI: > 100 µM
M14 melanoma
  TGI: > 100 µM
HS 578T breast
  TGI: > 100 µM
NCI-H23 lung
  TGI: > 100 µM
A498 renal
  TGI: > 100 µM
KM12 colon
  TGI: > 100 µM
SF-295 CNS
  TGI: > 100 µM
SK-MEL-5 melanoma
  TGI: > 100 µM
LOX IMVI melanoma
  TGI: > 100 µM
MOLT-4 leukemia
  TGI: > 100 µM
SK-OV-3 ovarian
  TGI: > 100 µM
PC-3 prostate
  TGI: > 100 µM
HCC-2998 colon
  TGI: > 100 µM
HT29 colon
  TGI: > 100 µM
RXF 393 renal
  TGI: > 100 µM
UACC-62 melanoma
  TGI: > 100 µM
SNB-75 CNS
  TGI: > 100 µM
SW-620 colon
  TGI: > 100 µM
RPMI-8226 leukemia
  TGI: > 100 µM
COLO 205 colon
  TGI: > 100 µM
MALME-3M melanoma
  TGI: > 100 µM
OVCAR-3 ovarian
  TGI: > 100 µM
NCI/ADR-RES ovarian
  TGI: > 100 µM
ACHN renal
  TGI: > 100 µM
HOP-62 NSCLC
  TGI: > 100 µM

Source: PubChem BioAssay (NCI)
